We go through one compound from US20110091484A1, “Compositions and methods for preventing or treating a viral infection” (priority 2005, published 2011).

For this experiment, the system named is WR vaccinia virus-infected 143B cell cultures. The class given is in vivo, mice.

Values joined by “and” are separate entries in the source; they are usually repeats but may differ in a detail not shown here. Identical values can stand only once.

For the compound `CC(C)Cn1cnc2c(N)nc3ccccc3c21` [Imiquimod], the “% Inhibition (plaque inhibition)” value was 13% and 22.6%.
